Assay results published in PMC13316224, “Expansion, functional diversification, and gene fusion events in the Ato protein family” (iScience, 2026).
Like-named read-outs stand apart in the source and are kept apart here.

What was measured:
Type in all cases: cell-based
CaAto1 (Ato1-GFP) [1] = target: T1, CaAto1 (Ato1-GFP) (Candida albicans, UniProt A0A1D8PHP8); experiment: competition of […]acetate uptake in cells; conditions: 0.1 mM [14C]acetate, 10 mM competitor, pH 6.0, 30 °C, collective statement for most carboxylates, estimated from one concentration
T1 construct: gene FRP3; full length with C-terminal GFP at both native loci, in C. albicans cells (ATO1-GFP/ATO1-GFP)

CaAto1 (Ato1-GFP) [2] = target: T1, CaAto1 (Ato1-GFP); experiment: […]lactate uptake in cells, against ato1 deletion strain; conditions: pH 6.0, 30 °C, 1-24 mM; H+ symport; labelled compound
CaAto1 (Ato1-GFP) [3] = target: T1, CaAto1 (Ato1-GFP); experiment: competition of […]acetate uptake in cells; conditions: read-out: % inhibition at 10 mM

T1 sequence (A0A1D8PHP8 entry or part of it): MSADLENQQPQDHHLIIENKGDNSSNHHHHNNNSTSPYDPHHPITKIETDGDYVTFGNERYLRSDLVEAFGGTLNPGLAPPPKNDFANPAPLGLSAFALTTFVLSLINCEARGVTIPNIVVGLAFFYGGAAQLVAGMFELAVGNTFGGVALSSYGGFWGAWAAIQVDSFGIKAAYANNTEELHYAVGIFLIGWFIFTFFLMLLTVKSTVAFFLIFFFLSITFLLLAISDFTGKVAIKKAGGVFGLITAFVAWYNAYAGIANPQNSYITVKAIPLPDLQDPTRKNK

Row | SMILES | Ki (CaAto1 (Ato1-GFP) [1]) | also measured
1 | O=C(O)C[C@H](O)C(=O)O [malate] | > 10 mM | 
2 | CC(=O)C(=O)O [pyruvate] |  | Ki (CaAto1 (Ato1-GFP) [1]; read-out: Ki): > 10 mM
3 | C[C@H](O)C(=O)O [lactate] |  | Ki (CaAto1 (Ato1-GFP) [1]; read-out: Ki): > 10 mM
4 | O=CO [formate] | > 10 mM | 
5 | O=C(O)CC(O)(CC(=O)O)C(=O)O [citrate] | > 10 mM | 
6 | C[C@H](O)C(=O)O [[14C]lactate] |  | [14C]lactate uptake in cells, against ato1 deletion strain (CaAto1 (Ato1-GFP) [2]): practically no lactate uptake was recorded in ato1Δ/Δ or ato1-10Δ/Δ strains
7 | CCCC(=O)O [butyrate] |  | inhibition at 10000 µM (CaAto1 (Ato1-GFP) [3]): ~50%
8 | O=C(O)CCC(=O)O [succinate] | > 10 mM | 
